Converted amounts (≈) assume the structure as drawn.
Columns and labels:
[1] = Cell viability assay (MTT), VERO; assay type: cell-based, Cercopithecus aethiops; settings: African green monkey (Cercopithecus aethiops), VERO kidney epithelial cells
Procedure: (§1) The epithelial cell line VERO (ATCC-Catalog No. CCL-81^TM), derived from the kidney of the African green monkey, Cercopithecus aethiops and fibroblast cell line L-929 (ATCC-Catalog No. CCL-1^TM), derived from Mus musculus (http://www.atcc.org) were grown in Iscoves’s Modified Dulbecco’s Medium (IMDM) supplemented with 10% (v/v) fetal bovine serum (FBS), plus 2 mM L-glutamine, 100 U/ml penicillin, 100.00 µg/ml streptomycin, 5 × 10^−5 M 2-mercaptoethanol and maintained at 37 °C in a 10% CO2 atmosphere. Subcultures were performed via enzymatic cell dissociation in 0.25% trypsin. After dissociation, the cells were placed in culture medium at 4 °C with 10% FBS to inhibit the action of trypsin. The isolated cells were centrifuged for 10 min at 1000×g at 4 °C, and the cells were grown in new bottles. This procedure was repeated when cells reached a confluence of ~90%. All commercial reactants and solvents were purchased from either Sigma-Aldrich Laborchemikalien GmbH (Dzitko et al. [2014]).
(§2) Suspensions of the compounds 4a–l were freshly prepared (5 mg/ml DMSO) before the cells were exposed, and diluted to appropriate concentrations; 0.9, 1.8, 3.9, 7.8, 15.6, 31.2, 62.5, and 125.00 μg/ml with the culture medium. Cells treated with 2.5% DMSO-solvent served as a control in each experiment.
(§3) The effects of tested compounds on the viability of mouse fibroblasts L929 and […] VERO cells were evaluated using the MTT assay. The MTT assay was used according to international standards: ISO 10993-5:2009 (Tests for in vitro cytotoxicity; http://www.iso.org/iso/catalogue_detail.htm? csnumber = 36406). L929 and VERO cells were plated into 96-well plates at a density of 1.0 × 10^4/100 μl/well in culture medium and allowed to attach for 24 h before treatment. Afterwards, culture medium in the plates was replaced by 100 μl compounds suspension at concentration of 0–125 μg/ml and the cells were exposed for 24 h. Then 1 mg/ml MTT (50 μl/well) was added to each well and incubated at 37 °C, 10 % CO2 for 2 h. Mitochondrial dehydrogenases of viable cells reduce the yellowish water-soluble MTT to water-insoluble formazan crystals, which were solubilized with dimethyl sulfoxide (DMSO). The cell culture medium was aspirated cautiously, after which 150 μl DMSO was added to each well and mixed thoroughly. Optical density (OD) was read on the ELISA reader (Multiskan EX, Labsystems; http://www.mtxlsi.com/multiskan_EX.htm) at 550 nm. The results were expressed as percentage viability compared with the treated 2.5% DMSO controls. All experiments were performed in triplicate.

VERO cells = assay: Cell viability assay (MTT), VERO; assay type: cell-based, Cercopithecus aethiops; settings: concentration for 30% proliferation inhibition, 24 h
Procedure: as §1, §2, §3

[2] = Cell viability assay (MTT), L929; assay type: cell-based, Mus musculus; settings: mouse, L929 fibroblast cells
Procedure: as §1, §2, §3

mouse L929 fibroblast = assay: Cell viability assay (MTT), L929; assay type: cell-based; settings: concentration for 30% proliferation inhibition, 24 h
Procedure: as §1, §2, §3

[3] = tested on: Toxoplasma gondii BK strain; assay: T. gondii tachyzoite intracellular proliferation in VERO host cells ([3H]uracil incorporation); assay type: cell-based; settings: Toxoplasma gondii, VERO host cells
Procedure: as §1, §2
Stock solutions of the Sulfadiazine (100 mg/ml 1 N NaOH; Catalog No. S8626) was freshly prepared before each experiment, and diluted to appropriate concentrations: 5.00, 25.00, 50.00, 125.00, 250.00, 500.00, 1250.00, and 2500.00 μg/ml, respectively in IMDM complete medium. All commercial reactants and solvents were purchased from either Sigma-Aldrich Laborchemikalien GmbH.
Tachyzoites of T. gondii, BK strain, were maintained in female C57BL/6 (H-2^b) and BALB/c (H-2^d) mice (with genetically determined high and low susceptibility, respectively to Toxoplasma infection) via serial intraperitoneal inoculation of 10^5–10^6 parasites per mouse in phosphate-buffered saline (PBS). After 48 to 96 h, parasites were harvested via peritoneal lavage using PBS, pH 7.2, and centrifuged at 200×g for 5 min to remove blood cells and cell debris. The supernatant containing tachyzoites was collected and centrifuged again at 2000×g for 15 min. The final pellet was resuspended in IMDM, quantified in a Burker’s chamber, and used in experimental assays. Inbred mice were kept under standard laboratory conventional conditions. All experimental procedures were conducted according to guidelines of the 9. Local Ethics Commission for Experiments on Animals in Lodz.
VERO, (2 × 10^4 cells/100 µl/well) were grown in complete medium (IMDM) on 96-well plates. After 24 h incubation, a medium was removed and then T. gondii […] tachyzoites, suspended in culture medium supplemented with 0.9–125.00 μg/ml diaminotriazines 4a–l and as a control-sulfadiazine (5.0–2500.0 μg/ml), were added (2 × 10^5 tachyzoites/200 µl/well) to the cell monolayers. After subsequent 48 h incubation 1 µCi/well of [^3H] uracil (Moravek Biochemicals Inc., Brea, CA, USA) was applied to each microculture for further 18–20 h. The amount of the isotope incorporated into the parasite nucleic acid pool, corresponding to the parasite growth, was measured by liquid scintillation counting with 1450 Microbeta Plus Liquid Scintillation Counter (Wallac Oy, Turku, Finland). The cpms of host cells alone (below 250/microculture) were subtracted from cpms of T. gondii infected microcultures (Dzitko et al. [2014]).

**Q.** What does the source list for C/C(=N\NC(N)=S)c1ccc(Nc2nc(N)nc(N)n2)cc1 [Compound 3, (2E)-2-(1-(4-((4,6-diamino-1,3,5-triazin-2-yl)amino)phenyl)ethylidene)hydrazinecarbothioamide]?
**A.** melting point: > 230 °C; viability at 24 h, 0.9 µg/ml ([1]; 0.9 µg/ml): 97.2%; viability at 24 h, 1.8 µg/ml ([1]; 1.8 µg/ml): 94%; viability at 24 h, 3.9 µg/ml ([1]; 3.9 µg/ml): 97.3%; viability at 24 h, 7.8 µg/ml ([1]; 7.8 µg/ml): 88.8%; viability at 24 h, 15.6 µg/ml ([1]; 15.6 µg/ml): 89.5%; viability at 24 h, 31.2 µg/ml ([1]; 31.2 µg/ml): 96.2%; viability at 24 h, 62.5 µg/ml ([1]; 62.5 µg/ml): 95.1%; viability at 24 h, 125 µg/ml ([1]; 125.0 µg/ml): 89.2%; CC30 VERO (VERO cells): >125.0 µg/mL; viability at 24 h, 0.9 µg/ml ([2]; 0.9 µg/ml): 110%; viability at 24 h, 1.8 µg/ml ([2]; 1.8 µg/ml): 116%; viability at 24 h, 3.9 µg/ml ([2]; 3.9 µg/ml): 111%; viability at 24 h, 7.8 µg/ml ([2]; 7.8 µg/ml): 106%; viability at 24 h, 15.6 µg/ml ([2]; 15.6 µg/ml): 105%; viability at 24 h, 31.2 µg/ml ([2]; 31.2 µg/ml): 112%; viability at 24 h, 62.5 µg/ml ([2]; 62.5 µg/ml): 111%; viability at 24 h, 125 µg/ml ([2]; 125.0 µg/ml): 110%; CC30 L929 (mouse L929 fibroblast): >125.0 µg/mL; activity at 0.9 µg/mL ([3]; 0.9 µg/ml): 100%; activity at 1.8 µg/mL ([3]; 1.8 µg/ml): 107%; activity at 3.9 µg/mL ([3]; 3.9 µg/ml): 98.6%; activity at 7.8 µg/mL ([3]; 7.8 µg/ml): 84.2%; activity at 15.6 µg/mL ([3]; 15.6 µg/ml): 64.6%; activity at 31.2 µg/mL ([3]; 31.2 µg/ml): 57.8%; activity at 62.5 µg/mL ([3]; 62.5 µg/ml): 49.4%; activity at 125 µg/mL ([3]; 125.0 µg/ml): 48.7%; IC50 ([3]; GraphPad Prism curves, read-out: IC50 (50% inhibition of T. gondii proliferation in vitro)): 70.4 µg/mL (≈ 222 µM)
